The target of assay [1] is Pro-neuropeptide Y (Rattus norvegicus, UniProt P07808).
The target in assay [2] is Pro-neuropeptide Y (Homo sapiens, UniProt P01303).

Regarding `CC[C@H](C)[C@H](NC(=O)[C@H](Cc1ccc(O)cc1)NC(=O)[C@H](CCCNC(=N)N)NC(=O)[C@H](CCCNC(=N)N)NC(=O)[C@H](CC(C)C)NC(=O)[C@H](CCC(N)=O)NC(=O)[C@@H](NC(=O)[C@H](CCC(=O)O)NC(=O)[C@H](Cc1ccc(O)cc1)NC(=O)[C@H](CCC(N)=O)NC(=O)[C@H](C)NC(=O)[C@H](CCCNC(=N)N)NC(=O)[C@H](CCC(N)=O)NC(=O)[C@H](CCC(=O)O)NC(=O)[C@H](Cc1c[nH]cn1)NC(=O)[C@@H](NC(=O)[C@H](C)NC(=O)[C@H](Cc1ccc(O)cc1)NC(=O)[C@H](CC(=O)O)NC(=O)CNC(=O)[C@@H]1CCCN1C(=O)[C@H](Cc1ccc(O)cc1)NC(=O)[C@H](CCSC)NC(=O)[C@@H]1CCCN1C(=O)[C@H](CCC(=O)O)NC(=O)[C@H](CC(C)C)NC(=O)[C@@H]1CCCN1C(=O)[C@H](C)N)[C@@H](C)O)[C@@H](C)O)C(=O)N[C@@H](CC(N)=O)C(=O)N[C@H](C(=O)N[C@@H](CC(C)C)C(=O)N[C@H](C(=O)N[C@@H](CCCNC(=N)N)C(=O)N1CCC[C@H]1C(=O)N[C@@H](CCCNC(=N)N)C(=O)N[C@@H](Cc1ccc(O)cc1)C(N)=O)[C@@H](C)O)[C@@H](C)O` [NSC_41735], the inhibition constant (Ki) (in general, a dissociation constant, usually derived from enzyme kinetics or from competition with a known ligand) turned out to be 0.4 nM in assay [1] and 139 nM in assay [2].

With `CC[C@H](C)[C@H](NC(=O)[C@H](Cc1ccc(O)cc1)NC(=O)[C@H](CCCNC(=N)N)NC(=O)[C@H](CCCNC(=N)N)NC(=O)[C@H](CC(C)C)NC(=O)[C@H](CC(=O)O)NC(=O)[C@H](C)NC(=O)[C@H](C)NC(=O)[C@H](Cc1ccc(O)cc1)NC(=O)[C@H](CCC(N)=O)NC(=O)[C@H](C)NC(=O)[C@H](CCSC)NC(=O)[C@H](CCC(N)=O)NC(=O)[C@H](CCC(=O)O)NC(=O)[C@@H]1CCCN1C(=O)[C@@H](NC(=O)[C@H](C)NC(=O)[C@H](CC(N)=O)NC(=O)[C@H](CC(=O)O)NC(=O)CNC(=O)[C@@H]1CCCN1C(=O)[C@H](Cc1ccc(O)cc1)NC(=O)[C@@H](NC(=O)[C@@H]1CCCN1C(=O)[C@H](CCC(=O)O)NC(=O)[C@H](CC(C)C)NC(=O)[C@@H]1CCCN1C(=O)[C@H](C)N)C(C)C)[C@@H](C)O)C(=O)N[C@@H](CC(N)=O)C(=O)N[C@@H](CCSC)C(=O)N[C@@H](CC(C)C)C(=O)N[C@H](C(=O)N[C@@H](CCCNC(=N)N)C(=O)N1CCC[C@H]1C(=O)N[C@@H](CCCNC(=N)N)C(=O)N[C@@H](Cc1ccc(O)cc1)C(N)=O)[C@@H](C)O` [CAS_59763-91-6], the inhibitory constant (Ki) stood at 0.3 nM in assay [1] and 1.9 nM in assay [2].

“H-APLEPEYPGDNATPEQMAQYAAELRRYINMLTRPRY-NH2 [CAS_59763-91-6]” showed a Ki in assay [2] of 2.3 nM.
